Data as given in patent US10716773B2, “Compositions comprising 15-HEPE and methods of treating or preventing cancer and neurologic disease” (Afimmune Limited, priority 2015, dated 2020).
“And” between values parts separate entries of the source, which are not always exact repeats. Equal values may be shown once.

Test system: caspase-3/7
Assay: Staurosporine-induced caspase-3/7 activity in NHDF, measured in cell lysates with fluorogenic substrate Ac-DEVD-AMC
Type: cell-based, human
Method: The potential inhibitory effect of compounds 15(S)-HEPE EE and EPA EE was evaluated on staurosporine-induced caspase activation in normal human dermal fibroblasts (NHDF). […] Normal human dermal fibroblasts (NHDF) were used at the 8th passage. […] Fibroblasts were seeded in 24-well plates and cultured for 24 hours in culture medium. The medium was then removed and replaced by assay medium containing or not (control) the test compounds and cells were pre-incubated for 24 hours. […] The cells were then incubated for 24 hours. Non-stimulated controls (without inducer) were performed in parallel. All experimental conditions were performed in n=3. […] Enzyme activity assay and protein quantification assay were performed in separated plates due to the fact that DTT used in the lysis buffer for caspase activity interferes with protein quantification. […] Lysis buffer: HEPES buffer (pH 7.4) containing EDTA, Triton X-100, NP-40 and DTT Assay Buffer: HEPES buffer (pH 7.4) containing NaCl, EDTA, NP-40, glycerol and DTT Substrate: Ac-DEVD-AMC, tested at 10 μM (stock solution at 1.5 mM in DMSO) Reference inhibitor: […] Ac-DEVD-AMC is a synthetic tetrapeptide fluorogenic substrate for caspase-3 and caspase-7 and contains the amino acid sequence of the PARP cleavage site at […]. […] Enzymes cleave the tetrapeptide between D and AMC resulting in the release of fluorogenic AMC, which can be quantified with a spectrofluorometer. […] In parallel, an additional control (assay buffer containing the substrate) was also performed to determine the background signal. At the end of incubation, the fluorescence intensity emitted by the reaction product (cleaved Ac-DEVD-AMC) was measured at wavelengths λex 380 nm and λem 440 nm using a spectrofluorimeter (SPECTRAmax® Gemini, Molecular Devices).

[1] = 0.1 μm, inhibitor added in the reaction mix of stimulated control lysate
[2] = 0.1 μm, inhibitor added in the reaction mix of stimulated control lysate, single replicates, listed as Ao-DEVO-CHO

| Molecule | increase of caspase-3/7 activity normalized versus protein quantity, staurosporine-stimulated versus non-stimulated conditions (staurosporine 100 nM, NHDF) [fold] | inhibition of staurosporine-stimulated caspase-3/7 activity (in words) (0.1 μM, added in the reaction mix) | % inhibition [1] [%] | % stimulated control [1] [%] | Normalized data: Mean (caspase-3/7 activity/proteins) [1] [AU/mg] | Caspase-3/7 activity (Fluorescence 380 nm/440 nm) [2] | Caspase-3/7 activity - Background (Fluorescence 380 nm/440 nm) [2] | Caspese-3/7 activity/proteins [2] |
| --- | --- | --- | --- | --- | --- | --- | --- | --- |
| CN[C@@H]1C[C@H]2O[C@@](C)([C@@H]1OC)n1c3ccccc3c3c4c(c5c6ccccc6n2c5c31)C(=O)NC4 [staurosporine] | 10 | – | – | – | – | – | – | – |
| Ac-DEVD-CHO | – | fully inhibited | 109 | 1 | 954 | 347 AU and 343 AU and 339 AU | 17 AU and 13 AU and 10 AU | 1254 AU/mg and 934 AU/mg and 674 AU/mg |
